For one data set, the system named is HIV-1 in HeLa cells. The data set is described as follows: Virus inhibition assay. The class given is cell-based. The following applies: 48 hours.
In a further data set the test system is HIV-1 in GHOST cells. The data set is described as follows: Virus inhibition assay. The class given is cell-based. Particulars: 48 hours.
For data set [1], the system named is HIV-1 RT L100I. Particulars: FEP/MC, relative to nevirapine; cited from earlier work.
For data set [2], the system named is HIV-1 RT Y181C. The following applies: relative to nevirapine; cited from earlier work.
The subject of data set [3] is HIV-1 RT Y188L. The following applies: relative to efavirenz; cited from earlier work.
Data set [4] relates to HIV-1 RT L100I. The following applies: relative to nevirapine; cited from earlier work.
The test system of data set [5] is HIV-1 RT Y181C. Particulars: FEP/MC, relative to nevirapine; cited from earlier work.
Data set [6] concerns HIV-1 RT Y188L. The following applies: FEP/MC, relative to efavirenz; cited from earlier work.
Data set [7] has as its system HIV-1 RT K103N. The following applies: relative to efavirenz; cited from earlier work.
In data set [8] the test system is HIV-1 RT K103N. Particulars: FEP/MC, relative to efavirenz; cited from earlier work.
Data set [9] relates to HIV-1 infected human MT-2 cells. Particulars: infected MT-2 human T-cell assay; cited from earlier work.
Data set [10] relates to HIV-1 protease. Particulars: cited from earlier work.
Data set [11] concerns HIV-1 protease. The following applies: cited from earlier work. The source holds these as a separate data set.

Read-outs that look alike come from different tables or passages of the source.

Consider “2,6-dichlorobenzamido-1H-indole [Compound 5]”, for which the viability (usually a read-out of living cells in per cent, often relative to untreated cells) stood at 81% with GHOST cells (10 μM) and 46% in the data set on GHOST cells (50 μM). For the same compound, the “HIV-1 inhibition (reduction in viral infectivity)” value in the data set with HIV-1 in HeLa cells (0.2 μM) and in the data set on HIV-1 in GHOST cells (0.2 μM) was “no appreciable inhibition” each time. Also, the HIV-1 inhibition in the data set on HIV-1 in HeLa cells (10 μM) and with HIV-1 in GHOST cells (10 μM) was 30% in each case.
As to `Cc1cc(C#N)cc(C)c1Oc1nc(Nc2ccc(C#N)cc2)nc(N)c1Br` [etravirine], the “ΔΔG (predicted), L100I” value in the data set with HIV-1 RT L100I [1] is -0.9 kcal/mol. Moreover, the “ΔΔG (experimental), Y181C” value in the data set on HIV-1 RT Y181C [2] was -1.36 ± 0.28 kcal/mol. For the same compound, the “ΔΔG (experimental), Y188L” value with HIV-1 RT Y188L [3] is -2.07 ± 0.23 kcal/mol. Besides, the “ΔΔG (experimental), L100I” value in the data set on HIV-1 RT L100I [4] was -2.36 ± 0.42 kcal/mol. Moreover, the “ΔΔG (predicted), Y181C” value in the data set on HIV-1 RT Y181C [5] is -2.6 kcal/mol. For the same compound, in the data set with HIV-1 RT Y188L [6], the “ΔΔG (computed), Y188L” value is -2.4 kcal/mol. Besides, the “ΔΔG (experimental), K103N” value in the data set with HIV-1 RT K103N [7] is -2.00 ± 0.40 kcal/mol. Besides, the “ΔΔG (computed), K103N” value in the data set on HIV-1 RT K103N [8] is -2.4 kcal/mol.
As for `Cc1ccnc2c1NC(=O)c1cccnc1N2C1CC1` [nevirapine], in data set [9], the concentration giving a half-maximal response (EC50) (in general, the concentration giving half of the maximal effect) is 110 nM.
Regarding `Nc1noc(C2CN3CCC2C3)n1` (stereo not shown) [oxadiazole], the EC50 result in [9] is “inactive”.
Regarding “Ac-Ser-Leu-Asn-(Phe-Hea-Pro)-Ile-Val-OMe [JG-365]”, in the data set with HIV-1 protease [10] (from Ki values for an equilibrium mixture of R and S configurations), the “ΔΔGbind (experimental), heptapeptide → hexapeptide” value is given as 3.8 ± 1.3 kcal/mol. Besides, the “ΔΔGbind (calculated), heptapeptide → hexapeptide (deletion of valine)” value with HIV-1 protease [11] (FEP/MD, averaged for R and S) is reported as 3.3 ± 1.1 kcal/mol.
In the case of “Ac-Thr-Ile-Nle-ψ [CH2-NH]-Nle-Gln-Arg-NH2 [MVT-101]”, the “decrease of binding, single Nle to Met mutation” value in the data set with HIV-1 protease [11] is recorded as 0.7 kcal/mol.
“Ala-Ala-Phe[CH(OH)CH2]Gly-Val-Val-OMe [HEI]”: the “ΔΔGbind (experimental), central hydroxyl S to R” value in the data set on HIV-1 protease [10] is recorded as 2.6 kcal/mol. Further, the “ΔΔGbind (computed), central hydroxyl S to R” value in the data set with HIV-1 protease [11] (FEP/MD) was 3.37 ± 0.64 kcal/mol. Besides, in the data set on HIV-1 protease [11], the “predicted enhancement of binding, Gly to Nle mutation” value was 1.7 kcal/mol.

The record behind these values is paper PMC3605731 (Current pharmaceutical design, 2012).
